For 37 molecules, Ki results are on record in patent US20080085884A1, “Melanin Concentrating Hormone Receptor-1 Antagonist Pyridinones” (Pfizer Inc, priority 2006, published 2008).

The target of this experiment is T1, human MCHR1 (Homo sapiens, UniProt Q99705).
T1 construct: host or cells: CHO
Kind of experiment: Cyclic AMP assay (MCHR-1 functional antagonism). In kind it is cell-based. As to conditions: CHO cells stably expressing human MCHR1; cAMP accumulation with 25 uM forskolin and 0.2 nM MCH, 90 min; Ki from IC50 by Cheng-Prusoff; read-out: MCHR-1 functional Ki. As for the experimental part: CHO cell lines stably expressing the human MCHR1 (Euroscreen, Brussels, Belgium) were maintained in DMEM containing Glutamax (Invitrogen, Carlsbad, Calif.), 10% FBS, 400 ug/ml Geneticin.
Cyclic AMP assays. CHO cells stably expressing the human MCHR1 receptors were collected and resuspended at a density of 4.0×10^6 cells/ml in F12 (Hams) media and seeded (20,000 cells per well) into 384-well, solid white Greiner assay plates. […] Cells were incubated at 37° C./5% CO2 for 90 minutes and cAMP accumulation subsequently determined by DiscoveRx Hithunter c-AMP II Assay kit (GE Healthcare, Buckinghamshire, UK) in accordance with manufactures instructions. Luminescence was measured on a LEADseaker imaging system (GE Healthcare, Buckinghamshire, UK). IC50 values were calculated from dose-response data fit using an in-house computer graphics and statistics program.

Each structure is given as a SMILES string.

T1 sequence (Q99705 whole entry): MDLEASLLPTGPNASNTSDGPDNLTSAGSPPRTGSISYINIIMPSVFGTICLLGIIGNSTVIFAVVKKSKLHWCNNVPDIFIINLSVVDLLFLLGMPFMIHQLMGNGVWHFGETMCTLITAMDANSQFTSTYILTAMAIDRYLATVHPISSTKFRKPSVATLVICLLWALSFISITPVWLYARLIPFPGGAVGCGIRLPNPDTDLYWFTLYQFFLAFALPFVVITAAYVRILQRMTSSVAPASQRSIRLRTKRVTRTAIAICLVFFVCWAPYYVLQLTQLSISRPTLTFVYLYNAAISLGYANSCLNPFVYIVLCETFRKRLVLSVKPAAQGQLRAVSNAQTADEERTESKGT

Turning to `CCN(C(=O)OC)[C@H]1CCN(c2ccc(-n3ccc(OCc4ccccc4)cc3=O)cn2)C1` [Example 177], the inhibitory constant (Ki) is 0.0193 µM.
As to `CCN(C(=O)OC)[C@@H]1CCN(c2ccc(-n3ccc(OCc4ccccc4)cc3=O)cn2)C1` [Example 178], the Ki came to 0.0192 µM.
For `COC(=O)N(C)[C@@H]1CCN(c2ccc(-n3ccc(OCc4ccc(F)cc4)cc3=O)cn2)C1` [Example 179], the Ki came out at 0.0189 µM.
To `COC(=O)N(C)[C@H]1CCN(c2ccc(-n3ccc(OCc4ccc(F)cc4)cc3=O)cn2)C1` [Example 180] belongs 0.0222 µM; to `COC(=O)N(C)[C@H]1CCN(c2ccc(-n3ccc(OCc4ccccc4)cc3=O)cn2)C1` [Example 181], 0.0109 µM.
The value for `COC(=O)N[C@H]1CCN(c2ccc(-n3ccc(OCc4ccc(F)cc4)cc3=O)cn2)C1` [Example 186] was 0.0298 µM; that for `COC(=O)N(C)[C@@H]1CCN(c2ccc(-n3ccc(OCc4ccccc4)cc3=O)cn2)C1` [Example 187] was 0.0241 µM; that for `COC(=O)N[C@@H]1CCN(c2ccc(-n3ccc(OCc4ccccc4)cc3=O)cn2)C1` [Example 188] was 0.218 µM.
As to `COC(=O)N[C@@H]1CCN(c2ccc(-n3ccc(OCc4ccc(F)cc4)cc3=O)cn2)C1` [Example 192], the Ki is 0.144 µM.
`COC(=O)NC1CN(c2ccc(-n3ccc(OCc4ccc(F)cc4)cc3=O)cn2)C1` [Example 193]: the inhibition constant (Ki) was 0.196 µM.
The value for `COC(=O)N[C@H]1CCN(c2ccc(-n3ccc(OCc4ccc(Cl)cc4)cc3=O)cn2)C1` [Example 194] was 0.0466 µM.
To `COC(=O)N1C[C@@H]2CN(c3ccc(-n4ccc(OCc5ccc(F)cc5)cc4=O)cn3)C[C@@H]2C1` [Example 195] belongs 0.0313 µM; to `CCC(=O)N[C@@H]1CCN(c2ccc(-n3ccc(OCc4ccccc4)cc3=O)cn2)C1` [Example 196], 0.605 µM; to `CN(C(=O)OC(C)(C)C)[C@@H]1CCN(c2ccc(-n3ccc(OCc4ccc(Cl)cc4)cc3=O)cn2)C1` [Example 197], 0.0077 µM.
On to `CN(C(=O)OC(C)(C)C)[C@H]1CCN(c2ccc(-n3ccc(OCc4ccc(Cl)cc4)cc3=O)cn2)C1` [Example 198], for which the Ki was 0.0106 µM.
`O=c1cc(OCc2ccc(Cl)c(Cl)c2)ccn1-c1ccc(N2CC[C@@H](O)C2)nc1` [Example 204]: the inhibition constant (Ki) came to 0.33 µM.
On to `O=c1cc(OCc2cccc(Cl)c2Cl)ccn1-c1ccc(N2CC[C@@H](O)C2)nc1` [Example 205], for which the Ki is 0.498 µM.
The value for `O=c1cc(OCc2ccc(F)c(Cl)c2)ccn1-c1ccc(N2CC[C@@H](O)C2)nc1` [Example 206] was 0.25 µM; that for `CC(C)N1C[C@H]2CN(c3ccc(-n4ccc(OCc5ccc(F)cc5)cc4=O)cn3)C[C@H]2C1` [Example 207] was 0.00651 µM.
With `O=c1cc(OCc2ccc(F)cc2)ccn1-c1ccc(N2C[C@@H]3CN(C4CCC4)C[C@@H]3C2)nc1` [Example 208], the inhibition constant Ki is 0.00272 µM.
In the case of `CC(C)N1C[C@H]2CN(c3ccc(-n4ccc(OCc5ccccc5)cc4=O)cn3)C[C@H]2C1` [Example 209], the Ki came out at 0.0106 µM.
To `O=c1cc(OCc2ccccc2)ccn1-c1ccc(N2C[C@@H]3CN(C4CCC4)C[C@@H]3C2)nc1` [Example 210] belongs 0.00456 µM.
The value for `NC1CCN(c2ccc(-n3ccc(OCc4ccccc4)cc3=O)cn2)CC1` [Example 214] was 0.106 µM; that for `O=c1cc(OCc2ccccc2)ccn1-c1ccc(N2CCCNCC2)nc1` [Example 216] was 0.078 µM.
The value for `N[C@@H]1[C@H]2CN(c3ccc(-n4ccc(OCc5ccccc5)cc4=O)cn3)C[C@@H]12` [Example 217] was 0.011 µM.
Consider `O=c1cc(OCc2ccccc2)ccn1-c1ccc(N2CCC3(CCNC3)C2)nc1` (stereo not shown) [Example 219], for which the Ki was found to be 0.00845 µM.
Regarding `O=c1cc(OCc2ccccc2)ccn1-c1ccc(N2CC3CCC(C2)N3)nc1` [Example 220], the Ki is 0.513 µM.
`CC(C)C1CN(c2ccc(-n3ccc(OCc4ccccc4)cc3=O)cn2)CCN1` (stereo not shown) [Example 221]: the Ki is 0.126 µM.
In the case of `CC(C)CC1CN(c2ccc(-n3ccc(OCc4ccccc4)cc3=O)cn2)CCN1` (stereo not shown) [Example 222], the Ki was found to be 0.68 µM.
To `CCC1CN(c2ccc(-n3ccc(OCc4ccccc4)cc3=O)cn2)CCN1` (stereo not shown) [Example 223] belongs 0.197 µM; to `CNC1CCN(c2ccc(-n3ccc(OCc4ccccc4)cc3=O)cn2)CC1` [Example 230], 0.0698 µM.
In the case of `O=c1cc(OCc2ccccc2)ccn1-c1ccc(N2C[C@H]3C[C@@H]2CN3)nc1` [Example 231], the Ki was 0.752 µM.
To `NC1CN(c2ccc(-n3ccc(OCc4ccccc4)cc3=O)cn2)C1` [Example 232] belongs 0.238 µM.
The value for `COCC1CCCN(c2ccc(-n3ccc(OCc4ccccc4)cc3=O)cn2)CC1` (stereo not shown) [Example 233] was 0.0176 µM; that for `CO[C@@H]1CCN(c2ccc(-n3ccc(OCc4ccccc4)cc3=O)cn2)C1` [Example 235] was 0.0109 µM.
For `CN(C)C1CN(c2ccc(-n3ccc(OCc4ccccc4)cc3=O)cn2)C1` [Example 239], the Ki was found to be 0.0412 µM.
As for `CC1(O)CCN(c2ccc(-n3ccc(OCc4ccccc4)cc3=O)cn2)C1` (stereo not shown) [Example 240], the Ki worked out at 0.0775 µM.
